# Patent US5759768A, “Assays for factors affecting circularization of DNA, assays for factors affecting DNA integration, factors, and uses thereof” (priority 1995, dated 1998)
# How the values were obtained:
# [1] = system: purified linear viral DNA; experiment: Circularization of purified linear viral DNA in cytoplasmic extracts of uninfected SupT1 cells; type: biochemical, HIV-1; settings: 1 mM, 37° C., 45 min
# Experimental: Further evidence of a role for host proteins in the formation of the 1-LTR and simple 2-LTR circular forms of viral DNA was obtained by testing the ability of uninfected cell extracts to mediate the circularization of purfied viral DNA. Linear viral DNA was prepared from cytoplasmic extracts of uninfected cells by SDS-proteinase K treatment and phenol extraction. The purfied DNA was added to cytoplasmic extracts prepared form uninfected SupT1 cells, in the presence or absence of added ATP.
# Linear viral DNA was purified from cytoplasmic extracts of cells 4 hours post-infection as described above. In FIG. 22, a purified linear viral DNA was added to cytoplasmic extracts from uninfected SupT1 cells and incubated at 37° C. for 45 minutes. The uninfected SupT1 cells used for the preparation of extracts were either untreated (lanes 3-11) or cultured in the presence of 10 ng/ml phorbol 12-myristate 13-acetate for six hours prior to extraction (lane 2). […] Lanes 2-11: reaction products following incubation of purified linear viral DNA in uninfected extracts containing 1 mM ATP (lanes 2 and 3), nothing added (lane 4), 1 mM dATP (lane 5), 1 mM UTP (lane 6), 1 mM CTP (lane 7), 1 mM GTP (lane 8), 1 mM ATPγS (lane 9), or 1 mM ADP (lane 10). Lane 11: uninfected SupT1 cell extract was treated with proteinase K for 10 minutes at 37° C., then linear viral DNA was added and incubation continued for 45 minutes. In FIG. 23, lanes 1, 2, 4 and 5: purified linear viral DNA was incubated with T4 DNA ligase (lane 1), T4 polynucleotide kinase and T4 DNA ligase (lane 2), Klenow fragment of E. coli DNA polymerase I and T4 DNA ligase […], or Klenow fragment, T4 polynucleotide kinase, and T4 DNA ligase (lane 4). Lanes 3 and 6: in vitro circularization reaction products generated in cell extracts, included as size standards. Lane 3: cytoplasmic extracts from infected cells were incubated with […] for 45 minutes; lane 6: purified linear viral DNA was incubated with cytoplasmic extract from uninfected SupT1 cells in the presence of 1 mM ATP for 45 minutes. The possibility that a host DNA ligase was responsible for the formation of the simple 2-LTR circles was examined by testing the ability of phage T4 ligase to catalyze the circularization of linear viral DNA. […] Restriction endonuclease analysis of the reaction products formed in the presence of both Klenow fragment and T4 DNA ligase confirmed the formation of new 2-LTR junctions (not shown). […] This observation is consistent with previous reports that linear viral DNA prepared from cells infected with the murine leukemia virus [Fujiwara and Mizuuchi, Cell, 54:497-504 (1988) and HIV-1 [Pauza, Virology, 179:886-887 (1990)] consists of a mixture of molecules that are either blunt-ended or recessed by two nucleotides at each 3'-terminus. The removal of the two terminal nucleotides is mediated by the viral integrase as a necessary step in the process of integration [Roth et al., Cell 58: 47-54 (1989)]. […] This would explain the requirement of DNA polymerase for the subsequent joining of the ends of viral DNA by DNA ligase.
# viral DNA = experiment: PCR analysis of circular viral DNA formed in vitro; type: biochemical, HIV-1
# Experimental: The following oligonucleotides were used for PCR: PBS, 5'-GTCGCCGCCCCTCGCCTC-3'(SEQ ID No. 1); tat, 5'-[…]-3'(SEQ ID No. 2); nef, 5'-[…]-3'(SEQ ID No. 3); R1, 5'-[…]-3'(SEQ ID No. 4); R2, 5'-[…]-3'(SEQ ID No. […]). One hundred microliter reactions contained 10 mM Tris hydrochloride (pH 8.3), 50 mM KCl, 1.5 mM MgCl2, 0.001% (w/v) gelatin, 200 μM each dATP, dCTP, dGTP, and dTTP, 1 μM each of the indicated primer, and 2.5 units of AmpliTaq recombinant Taq DNA polymerase (Perkin Elmer Cetus Co., Norwalk, Conn.). For amplification of viral DNA from cytoplasmic extracts, each reaction contained approximately 1/30 the amount of DNA from a 3 ml extract. For amplification of viral DNA from Hirt extractions, each reaction contained DNA from the equivalent of 2×10^6 cells. An initial denaturation step at 98° C. was performed for 10 minutes. Thirty cycles of the PCR reaction were then performed with an annealing temperature of 60° C. for 1 minute, an extension temperature of 72° C. for 5 minutes, and a denaturation temperature of 95° C. for 1 minute. Reaction products were visualized following electrophoresis on 1% agarose gel containing ethidium bromide. […]
# Additional rounds of PCR amplification were necessary to detect the presence of a DNA fragment corresponding to the 2-LTR junction fragment when viral DNA from Hirt supernatants of infected cells were used, presumably due to the lower concentration of 2-LTR circles as compared to 1-LTR circles in these preparations (data not shown). Similarly, 2-LTR junction fragments were not readily detected among the amplification products of circular viral DNA formed in vitro, most likely due to the low concentration of simple 2-LTR circles and competition by the other forms of circular viral DNA (1-LTR circles and 2-LTR circles formed by autointergration) present at much higher concentrations. […]
SMILES,1-LTR circles from purified linear viral DNA [1],2-LTR circles from purified linear viral DNA [1],circularization of purified linear viral DNA [1],"PCR amplification product (2-LTR junction, R region primers) (viral DNA; SalI digested circular DNA formed with added ATP)","PCR amplification products (PBS and tat primers, autointegration) (viral DNA; extracts incubated with 1 mM ATP)","PCR amplification product (1-LTR circle junction) (viral DNA; extracts treated with 1 mM ATP, PBS and nef primers)",ability to substitute for ATP in formation of simple 2-LTR circles [1]
"Nc1ncnc2c1ncn2[C@@H]1O[C@H](COP(=O)(O)OP(=O)(O)OP(=O)(O)O)[C@@H](O)[C@H]1O [ATP, adenosine triphosphate]",The most abundant of the new DNA forms comigrated with the 1-LTR circular DNA molecules,a small amount of product migrating as 2-LTR circles could also be detected,"New, slowly migrating DNA species were detected",A DNA fragment of the same size was detected,a mixture of DNA fragments of heterogeneous lengths,a DNA fragment having the size expected for a 1-LTR circle junction was generated,–
Nc1ncnc2c1ncn2[C@@H]1O[C@H](COP(=O)(O)OP(=O)(O)OP(O)(O)=S)[C@@H](O)[C@H]1O [ATPγS],–,–,failed to induce the circularization of purified linear viral DNA,–,–,–,"None of the other nucleoside triphosphates tested, nor ATPγS, was able to substitute for ATP"
